Test results as given in publication PMC12444472, “BCI inhibits MKP3 by targeting the kinase-binding domain and disrupting ERK2 interaction” (The Journal of Biological Chemistry, 2025).

Columns and labels:
[1] = tested on: MKP3; conditions: basal, without ERK2; cited from earlier work
[2] = molecular target: T1, Full-length human MKP3, MKP3(1-381) (human) (UniProt Q16828)
T1 sequence: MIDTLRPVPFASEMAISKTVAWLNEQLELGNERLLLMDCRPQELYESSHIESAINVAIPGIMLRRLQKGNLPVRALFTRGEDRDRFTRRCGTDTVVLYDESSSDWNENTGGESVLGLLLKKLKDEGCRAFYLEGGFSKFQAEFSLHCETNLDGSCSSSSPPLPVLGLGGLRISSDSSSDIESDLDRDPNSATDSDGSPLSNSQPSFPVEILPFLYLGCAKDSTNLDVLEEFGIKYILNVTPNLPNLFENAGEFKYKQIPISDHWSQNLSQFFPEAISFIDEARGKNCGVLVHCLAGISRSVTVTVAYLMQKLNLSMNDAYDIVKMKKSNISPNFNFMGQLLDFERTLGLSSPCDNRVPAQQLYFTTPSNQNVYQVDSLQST

time of pERK2 dephosphorylation by MKP3^FL with BCI at a concentration 50 times that of pERK2 [2] [fold]	Molecule	effect on MKP3's basal activity toward OMFP [1]
	O=C1C(SCCO)=C(SCCO)C(=O)c2ccccc21 [NSC95397]	inhibited
> 20	Phosphorylated ERK2 (bis-pERK2, phosphorylated at T183 and Y185) (from UniProt P63085 1-358) (enzyme)	
